Data from patent US9446039B2, “Aminoheteroaryl compounds as MTH1 inhibitors” (CEMM—FORSCHUNGSZENTRUM FÜR MOLEKULARE MEDIZIN GMBH, priority 2012, dated 2016).

How the values were obtained:
Type in all cases: binding
[1] = molecular target: T1, SW480 colon carcinoma cells lysate proteins (Homo sapiens, UniProt P22314); conditions: PreyGene UBA1
T1 sequence (P22314 1-1058): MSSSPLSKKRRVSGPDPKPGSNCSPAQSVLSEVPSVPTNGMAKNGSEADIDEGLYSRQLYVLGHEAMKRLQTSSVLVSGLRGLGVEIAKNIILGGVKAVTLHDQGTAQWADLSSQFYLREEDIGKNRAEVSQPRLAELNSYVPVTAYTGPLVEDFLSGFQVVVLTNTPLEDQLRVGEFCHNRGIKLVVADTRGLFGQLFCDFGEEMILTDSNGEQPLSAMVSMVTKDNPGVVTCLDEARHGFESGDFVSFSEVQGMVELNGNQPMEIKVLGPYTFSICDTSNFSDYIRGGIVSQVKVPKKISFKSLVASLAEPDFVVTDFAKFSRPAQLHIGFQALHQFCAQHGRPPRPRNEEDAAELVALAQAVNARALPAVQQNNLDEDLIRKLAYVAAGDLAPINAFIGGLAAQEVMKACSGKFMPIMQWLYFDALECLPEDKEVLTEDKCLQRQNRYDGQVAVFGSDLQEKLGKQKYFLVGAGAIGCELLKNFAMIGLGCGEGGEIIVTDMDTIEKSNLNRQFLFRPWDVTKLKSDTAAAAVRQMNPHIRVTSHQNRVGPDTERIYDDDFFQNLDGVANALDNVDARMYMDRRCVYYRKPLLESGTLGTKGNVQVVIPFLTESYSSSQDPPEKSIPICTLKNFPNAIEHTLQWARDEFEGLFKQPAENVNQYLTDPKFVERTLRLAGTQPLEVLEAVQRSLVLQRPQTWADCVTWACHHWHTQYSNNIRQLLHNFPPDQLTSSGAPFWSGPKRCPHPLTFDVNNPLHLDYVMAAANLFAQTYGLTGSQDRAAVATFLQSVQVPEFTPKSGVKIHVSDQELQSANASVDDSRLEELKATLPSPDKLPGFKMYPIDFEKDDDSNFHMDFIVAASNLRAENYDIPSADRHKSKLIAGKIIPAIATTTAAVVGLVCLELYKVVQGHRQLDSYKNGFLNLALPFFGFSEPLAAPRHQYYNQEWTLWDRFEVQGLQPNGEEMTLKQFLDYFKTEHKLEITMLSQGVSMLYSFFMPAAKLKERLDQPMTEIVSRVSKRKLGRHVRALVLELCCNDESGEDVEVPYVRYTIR

[2] = molecular target: SW480 colon carcinoma cells lysate proteins (Homo sapiens, UniProt Q14240); conditions: PreyGene EIF4A2; SW480 cells
[3] = molecular target: T2, SW480 colon carcinoma cells lysate proteins (Homo sapiens, UniProt Q92973); conditions: PreyGene TNPO1; SW480 cells
T2 sequence (Q92973 1-898): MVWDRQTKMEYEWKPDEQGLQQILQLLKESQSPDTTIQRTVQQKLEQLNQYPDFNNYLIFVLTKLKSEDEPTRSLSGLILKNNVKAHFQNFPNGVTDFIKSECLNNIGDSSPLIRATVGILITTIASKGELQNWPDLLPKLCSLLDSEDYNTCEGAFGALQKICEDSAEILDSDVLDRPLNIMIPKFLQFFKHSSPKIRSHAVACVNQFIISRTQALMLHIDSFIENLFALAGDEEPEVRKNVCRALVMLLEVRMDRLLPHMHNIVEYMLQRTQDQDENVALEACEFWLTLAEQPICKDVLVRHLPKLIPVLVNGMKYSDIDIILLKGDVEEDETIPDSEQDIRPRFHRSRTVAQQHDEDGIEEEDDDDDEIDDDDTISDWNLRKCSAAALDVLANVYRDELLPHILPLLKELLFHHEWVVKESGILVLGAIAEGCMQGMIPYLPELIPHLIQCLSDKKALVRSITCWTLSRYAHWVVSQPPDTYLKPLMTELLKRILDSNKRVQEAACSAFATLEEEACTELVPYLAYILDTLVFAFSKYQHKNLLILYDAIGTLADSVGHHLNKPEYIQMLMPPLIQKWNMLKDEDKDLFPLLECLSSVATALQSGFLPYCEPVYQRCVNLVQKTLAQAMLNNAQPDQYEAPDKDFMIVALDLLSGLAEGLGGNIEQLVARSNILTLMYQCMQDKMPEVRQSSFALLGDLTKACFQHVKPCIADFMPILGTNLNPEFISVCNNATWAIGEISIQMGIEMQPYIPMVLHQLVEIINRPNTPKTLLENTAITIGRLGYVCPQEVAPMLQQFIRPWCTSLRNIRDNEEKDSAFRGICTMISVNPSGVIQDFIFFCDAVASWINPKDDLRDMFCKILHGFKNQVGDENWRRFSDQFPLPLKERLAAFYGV

[4] = molecular target: T3, SW480 colon carcinoma cells lysate proteins (Homo sapiens, UniProt Q9Y383); conditions: PreyGene LUC7L2
T3 sequence (Q9Y383 1-392): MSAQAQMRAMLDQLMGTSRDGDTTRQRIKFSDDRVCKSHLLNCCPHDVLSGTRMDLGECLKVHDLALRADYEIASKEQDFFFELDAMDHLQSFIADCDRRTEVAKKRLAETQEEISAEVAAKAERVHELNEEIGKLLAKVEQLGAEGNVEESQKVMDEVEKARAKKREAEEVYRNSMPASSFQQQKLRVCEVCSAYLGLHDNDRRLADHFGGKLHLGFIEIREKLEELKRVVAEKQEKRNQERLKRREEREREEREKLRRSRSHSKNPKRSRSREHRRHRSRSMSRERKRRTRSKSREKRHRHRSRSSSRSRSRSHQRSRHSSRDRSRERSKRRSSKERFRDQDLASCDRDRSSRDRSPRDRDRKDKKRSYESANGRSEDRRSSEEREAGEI

Chain of SW480 colon carcinoma cells lysate proteins (Homo sapiens, UniProt Q14240) (Q14240 whole entry): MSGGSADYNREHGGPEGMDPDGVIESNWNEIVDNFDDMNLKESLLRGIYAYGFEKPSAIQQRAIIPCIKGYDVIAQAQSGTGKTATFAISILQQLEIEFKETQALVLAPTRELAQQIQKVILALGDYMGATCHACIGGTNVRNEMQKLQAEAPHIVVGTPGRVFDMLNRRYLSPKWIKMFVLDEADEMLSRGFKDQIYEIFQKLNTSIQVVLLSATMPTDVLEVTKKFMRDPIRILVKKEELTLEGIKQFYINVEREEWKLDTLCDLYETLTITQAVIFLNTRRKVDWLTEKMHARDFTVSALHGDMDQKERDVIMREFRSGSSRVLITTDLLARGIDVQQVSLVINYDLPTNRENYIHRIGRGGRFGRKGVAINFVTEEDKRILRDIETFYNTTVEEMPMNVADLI

C[C@H](Oc1cc(-c2cnn(C3CCNCC3)c2)cnc1N)c1c(Cl)ccc(F)c1Cl [(5)-crizotinib]
AvgP [1]: 0.4997
SC.Exp. 1-1 [1]: 15
SC.Exp. 1-2 [1]: 15
SC.Exp. 2-1 [1]: 0
SC.Exp. 2-2 [1]: 0
Sum (SC.Exp.) [1]: 30
AvgP [2]: 0
SC.Exp. 1-1 [2]: 1
SC.Exp. 1-2 [2]: 1
SC.Exp. 2-1 [2]: 0
SC.Exp. 2-2 [2]: 1
SC.Exp. Sum [2]: 3
AvgP [3]: 0
SC.Exp. 1-1 [3]: 9
SC.Exp. 1-2 [3]: 7
SC.Exp. 2-1 [3]: 6
SC.Exp. 2-2 [3]: 6
SC.Exp. Sum [3]: 28
AvgP [4]: 0.3775
SC.Exp. 1-1 [4]: 3
SC.Exp. 1-2 [4]: 3
SC.Exp. 2-1 [4]: 0
SC.Exp. 2-2 [4]: 0
Sum (SC.Exp.) [4]: 6
